Source: publication PMC12521909, “Camizestrant in Combination with Three Globally Approved CDK4/6 Inhibitors in Women with ER+, HER2− Advanced Breast Cancer: Results from SERENA-1” (Clinical Cancer Research, 2025)

How the values were obtained:
[1] = system: women with ER+, HER2− advanced breast cancer; test: Digital, centrally read triplicate ECGs (resting heart rate, QTcF); set-up: species or system human; conditions: in vivo
From the text: Digital, centrally read, triplicate ECGs were obtained throughout the study.

[2] = Plasma pharmacokinetics by validated LC/MS-MS (cycle 1, day 15); type: in vivo; conditions: human, oral; for AUC / Cmax: Cycle 1 Day 15, geomean; for Tmax: Cycle 1 Day 15, median
Description: Details of safety and efficacy assessments and of ctDNA sampling and assessments have been described previously ([37]). For PK analyses, plasma concentrations of camizestrant, abemaciclib, palbociclib, and ribociclib were determined using validated LC/MS-MS.
Details of assessments and analysis sets have been described previously ([38]). Briefly, safety was assessed in the safety analysis set, and efficacy and antitumor activity were assessed in the evaluable-for-response set. PK was assessed in the PK analysis set, which included all patients who provided at least one quantifiable postdose PK concentration for either camizestrant or any of the other agents evaluated.

[3] = 75 mg, camizestrant 75 mg monotherapy
[4] = 150 mg, camizestrant 150 mg monotherapy
[5] = 300 mg, camizestrant 300 mg monotherapy
[6] = camizestrant 75 mg + abemaciclib
[7] = camizestrant 75 mg + palbociclib
[8] = camizestrant 75 mg + ribociclib (400 mg)
[9] = camizestrant 75 mg + ribociclib (600 mg)
[10] = camizestrant 150 mg + abemaciclib
[11] = camizestrant 150 mg + palbociclib
[12] = camizestrant 300 mg + palbociclib

C[C@@H]1Cc2c(ccc3[nH]ncc23)[C@@H](c2ccc(NC3CN(CCCF)C3)cn2)N1CC(F)(F)F [camizestrant]
Time of gradual decrease in resting HR to stable nadir [1]: approximately 14 days | AUC [2, 3]: 862 ng·h/mL | Cmax [2, 3]: 64.7 ng/mL | Tmax [2, 3]: 3.72 h | AUC [2, 4]: 2160 ng·h/mL | Cmax [2, 4]: 166 ng/mL | Tmax [2, 4]: 2.17 h | AUC [2, 5]: 4780 ng·h/mL | Cmax [2, 5]: 376 ng/mL | Tmax [2, 5]: 3 h | half-life ([2]; across combinations, PK sampled up to 24 hours, likely underestimated, read-out: Estimated half-life of camizestrant): 9.5 to 17 h | AUC [2, 6]: 1120 ng·h/mL | Cmax [2, 6]: 85.4 ng/mL | Tmax [2, 6]: 4 h | AUC [2, 7]: 1200 ng·h/mL | Cmax [2, 7]: 93.9 ng/mL | Tmax [2, 7]: 4 h | AUC [2, 8]: 2280 ng·h/mL | Cmax [2, 8]: 154 ng/mL | Tmax [2, 8]: 3.6 h | AUC [2, 9]: 2750 ng·h/mL | Cmax [2, 9]: 179 ng/mL | Tmax [2, 9]: 4 h | AUC [2, 10]: 2050 ng·h/mL | Cmax [2, 10]: 159 ng/mL | Tmax [2, 10]: 4 h | AUC [2, 11]: 2420 ng·h/mL | Cmax [2, 11]: 189 ng/mL | Tmax [2, 11]: 3.92 h | AUC [2, 12]: 4940 ng·h/mL | Cmax [2, 12]: 386 ng/mL | Tmax [2, 12]: 4 h
